According to patent publication US10913744B2, “LRRK2 inhibitors and methods of making and using the same” (Dana-Farber Cancer Institute, Inc., priority 2015, dated 2021):
Like-named read-outs stand apart in the source and are kept apart here.

Columns and labels:
EGFR (T790M) = EGFR (T790M) (Homo sapiens (Human), UniProt P00533, T790M); assay: KinomeScan; format: binding; details: 1 uM
[1] = target: JAK1 (JH1domain-catalytic) (Homo sapiens (Human), UniProt P23458); assay: KinomeScan; format: binding; details: 1 uM
RSK2 = RSK2 (Homo sapiens (Human), UniProt P51812); assay: Dundee profiling
RSK2, sequence (P51812 whole entry, species assumed): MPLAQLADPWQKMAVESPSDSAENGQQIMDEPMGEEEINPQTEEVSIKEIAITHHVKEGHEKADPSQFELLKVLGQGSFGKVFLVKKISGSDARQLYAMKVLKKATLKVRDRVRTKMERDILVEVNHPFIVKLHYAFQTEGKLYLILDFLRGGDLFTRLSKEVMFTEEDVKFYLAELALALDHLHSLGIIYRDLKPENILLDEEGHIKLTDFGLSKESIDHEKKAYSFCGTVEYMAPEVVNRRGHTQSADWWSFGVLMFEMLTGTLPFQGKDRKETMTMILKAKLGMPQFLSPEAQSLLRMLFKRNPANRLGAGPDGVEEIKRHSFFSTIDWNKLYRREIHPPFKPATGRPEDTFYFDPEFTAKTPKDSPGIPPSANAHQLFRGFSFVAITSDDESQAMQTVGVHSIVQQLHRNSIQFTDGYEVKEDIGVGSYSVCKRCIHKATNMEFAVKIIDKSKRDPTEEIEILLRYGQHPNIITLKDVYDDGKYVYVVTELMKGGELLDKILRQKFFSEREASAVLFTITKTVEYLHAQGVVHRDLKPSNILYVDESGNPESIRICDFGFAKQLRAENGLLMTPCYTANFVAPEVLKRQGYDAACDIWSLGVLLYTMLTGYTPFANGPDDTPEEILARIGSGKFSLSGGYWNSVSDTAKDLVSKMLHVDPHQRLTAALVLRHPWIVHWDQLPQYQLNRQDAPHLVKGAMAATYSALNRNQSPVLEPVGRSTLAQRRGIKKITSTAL

JAK1 (JH1domain-catalytic), sequence (P23458 875-1153): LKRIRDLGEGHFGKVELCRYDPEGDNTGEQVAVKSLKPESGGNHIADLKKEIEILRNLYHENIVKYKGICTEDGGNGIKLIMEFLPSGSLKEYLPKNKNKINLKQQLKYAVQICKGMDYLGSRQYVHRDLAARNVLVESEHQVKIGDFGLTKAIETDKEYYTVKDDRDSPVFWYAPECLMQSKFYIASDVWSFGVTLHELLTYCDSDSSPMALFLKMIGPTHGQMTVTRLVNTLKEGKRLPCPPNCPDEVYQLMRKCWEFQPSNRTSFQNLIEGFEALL
EGFR (T790M), sequence (P00533 25-1210 T790M): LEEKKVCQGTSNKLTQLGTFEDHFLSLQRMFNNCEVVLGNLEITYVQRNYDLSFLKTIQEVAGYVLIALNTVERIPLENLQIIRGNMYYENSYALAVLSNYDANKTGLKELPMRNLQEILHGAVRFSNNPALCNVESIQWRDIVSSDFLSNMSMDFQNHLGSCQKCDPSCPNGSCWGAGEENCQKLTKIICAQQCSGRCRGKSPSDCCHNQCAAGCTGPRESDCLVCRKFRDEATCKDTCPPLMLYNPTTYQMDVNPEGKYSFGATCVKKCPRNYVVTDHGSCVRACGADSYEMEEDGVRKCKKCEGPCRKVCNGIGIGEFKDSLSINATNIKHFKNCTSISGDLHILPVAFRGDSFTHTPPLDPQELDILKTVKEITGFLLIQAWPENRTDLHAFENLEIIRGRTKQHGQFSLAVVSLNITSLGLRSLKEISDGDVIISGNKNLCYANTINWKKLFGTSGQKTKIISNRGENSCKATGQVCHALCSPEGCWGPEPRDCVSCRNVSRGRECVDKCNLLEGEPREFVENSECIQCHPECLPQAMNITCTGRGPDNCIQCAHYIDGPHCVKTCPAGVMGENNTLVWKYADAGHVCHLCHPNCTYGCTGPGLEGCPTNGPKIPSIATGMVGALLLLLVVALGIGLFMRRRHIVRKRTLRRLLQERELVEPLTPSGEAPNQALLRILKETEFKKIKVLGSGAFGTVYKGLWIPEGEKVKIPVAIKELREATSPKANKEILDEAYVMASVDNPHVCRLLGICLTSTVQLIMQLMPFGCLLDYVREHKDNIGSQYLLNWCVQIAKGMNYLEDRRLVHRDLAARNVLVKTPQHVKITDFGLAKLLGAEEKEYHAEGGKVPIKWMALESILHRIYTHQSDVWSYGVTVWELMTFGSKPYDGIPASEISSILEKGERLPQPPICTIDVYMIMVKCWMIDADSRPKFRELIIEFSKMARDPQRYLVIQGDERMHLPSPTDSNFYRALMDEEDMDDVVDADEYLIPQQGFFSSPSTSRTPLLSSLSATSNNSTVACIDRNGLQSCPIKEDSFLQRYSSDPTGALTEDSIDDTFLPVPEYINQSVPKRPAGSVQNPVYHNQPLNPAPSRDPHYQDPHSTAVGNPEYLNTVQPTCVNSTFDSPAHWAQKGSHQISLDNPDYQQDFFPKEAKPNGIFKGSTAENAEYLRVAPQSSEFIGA

Compound `CNc1nc(Nc2ccc(C(=O)N3CCOCC3)cc2OC)nc2[nH]cc(Cl)c12` [Compound 18, (4-((5-chloro-4-(methylamino)-7H-pyrrolo[2,3-d]pyrimidin-2-yl)amino)-3-methoxyphenyl)(morpholino)methanone] has a KinomeScan value (EGFR (T790M)) of 97, a KinomeScan value [1] of 77 and a remaining activity at 1 µM (RSK2; read-out: percent remaining enzymatic activity, I1, 1 μM) of 117%. It also gave a remaining activity at 1 µM (RSK2; read-out: percent remaining enzymatic activity, I10) of 94%.
